Laboratory results published in ChEMBL document CHEMBL3507680, “University of Dundee, Gates Library screen for HepG2 cell viability”.

Test: Human HepG2 cell viability assay in 384 well format
Assay type: toxicity, cell-based
Set-up: dose 125 nL, time 70.5 hour; cytotoxicity at 70.5 h: concentration not given beside the values
Conditions: HepG2 cells, read-out: Inhibition
Molecule `CC(C)CN1CCn2nc(CNc3ncnc4[nH]cnc34)cc2C1` has a cytotoxicity at 70.5 h of 10.6%. Molecule `O=C(Cn1cccnc1=O)NCc1cccnc1OCC(F)(F)F` has a cytotoxicity at 70.5 h of 2.5%. For `NC(=O)NC(=O)CNc1cccc(C(=O)c2ccccc2)c1`, the cytotoxicity at 70.5 h was 13.6%. In the case of `CCCN1CCCN(c2ccc(-n3ccc(C)n3)nn2)CC1`, the cytotoxicity at 70.5 h is reported as -7.57%. For `CC(NC(=O)NCCCn1cncn1)c1ccc(C(F)(F)F)cc1` (configuration not stated), the cytotoxicity at 70.5 h was -7.5%. For `O=C1CCCc2[nH]c(=O)c(C(=O)N(Cc3ccsc3)C3CC3)cc21`, the cytotoxicity at 70.5 h was -1.04%. Work on `Brc1cc(CNCc2nnc3n2CCC3)cs1` yielded a cytotoxicity at 70.5 h of -8.54%. With `CC(C)(C)Cc1noc2ncc(C(=O)N3CCC3)cc12` the cytotoxicity at 70.5 h was -6.81%. `CN(Cc1ccc2c(c1)OCCO2)C(=O)Cn1cccnc1=O` showed a cytotoxicity at 70.5 h of 3.46%. With `CC1(c2ccc(Br)cc2)CC(=O)N(CC(N)=O)C1=O` (configuration not stated) the cytotoxicity at 70.5 h was 32.3%. In the case of `COc1ncccc1C(=O)NCCn1cnc(C)cc1=O`, the cytotoxicity at 70.5 h is reported as -2.32%. For `c1cc(CNCc2ccnc(N3CCOCC3)c2)c2c(c1)OCCCO2`, the cytotoxicity at 70.5 h was -9.7%. In the case of `Nc1nccc(N2CCC(c3cc(Cc4ccccc4)n[nH]3)CC2)n1`, the cytotoxicity at 70.5 h is reported as 31.5%. `CC(C(=O)Nc1ccccc1F)S(C)(=O)=O` (configuration not stated) gave a cytotoxicity at 70.5 h of 2.07%. Molecule `Cc1cccc(-c2c[nH]c(C3CCCN3)n2)c1` (configuration not stated) has a cytotoxicity at 70.5 h of -7.37%. Molecule `O=C(NCc1ccc2c(c1)CCCO2)C1CNCCO1` (configuration not stated) has a cytotoxicity at 70.5 h of 48.5%. For `COc1cc(Cl)cc(CN2CCCC(N3CCCC3)C2)c1OC` (configuration not stated), the cytotoxicity at 70.5 h was -14.7%. Molecule `CCC(=O)Nc1nnc(CCOc2cccc(OC)c2)s1` has a cytotoxicity at 70.5 h of 6.47%. `Cc1ccc(C(=O)N(C)C)cc1NC(=O)COCC1CC1` gave a cytotoxicity at 70.5 h of -6.84%. For `CCc1nccn1C1CCCN(C(=O)c2cnc3onc(C)c3c2)C1` (configuration not stated), the cytotoxicity at 70.5 h was -2.35%. Work on `CCNc1ncc(C(=O)NC2CCSC2)cn1` (configuration not stated) yielded a cytotoxicity at 70.5 h of 8.53%. Molecule `CCC1=N[C@@]2(CC[C@@H]3CN(S(C)(=O)=O)C[C@@H]32)C(=O)N1CC(C)C` has a cytotoxicity at 70.5 h of -1.52%. In the case of `COc1cccc(CN2CCCCCC2c2cccc(C)c2)c1O` (configuration not stated), the cytotoxicity at 70.5 h is reported as 6.46%. `COc1ccc(CN2CCn3cccc3C2C)cc1F` (configuration not stated) gave a cytotoxicity at 70.5 h of -3.79%. In the case of `CCC(=O)N1CCC(Cc2cnc(Nc3cnccn3)cn2)CC1`, the cytotoxicity at 70.5 h is reported as -11.1%. Work on `Cc1cc(NC(=O)CNC(C)(C)c2ccccc2)on1` yielded a cytotoxicity at 70.5 h of 17.8%. Molecule `CCC(CO)NCc1ccc(-c2ccc(F)c(Cl)c2)o1` (configuration not stated) has a cytotoxicity at 70.5 h of 3.9%. Work on `COc1cccc(-c2n[nH]cc2CNC2CCCN(C)C2)c1` (configuration not stated) yielded a cytotoxicity at 70.5 h of -5.83%. Molecule `COc1cccc(CN2CCC(c3nn(CCN)c4nccnc34)C2)c1` (configuration not stated) has a cytotoxicity at 70.5 h of 17%. With `CC(CC(=O)NS(=O)(=O)c1ccc2c(c1)OCCO2)c1ccc(F)cc1` (configuration not stated) the cytotoxicity at 70.5 h was -1.76%. Molecule `CNc1nc2c(s1)C(c1ccccc1F)CC(=O)N2` (configuration not stated) has a cytotoxicity at 70.5 h of 9.16%. In the case of `Cc1c(C(C)Nc2ncnc3sccc23)cnn1C` (configuration not stated), the cytotoxicity at 70.5 h is reported as -8.04%. In the case of `COc1ccc(OC2CCN(C(=O)c3ccc(C(C)=O)s3)CC2)cc1`, the cytotoxicity at 70.5 h is reported as -6.92%. With `Cc1ccc(C2(CN(C)Cc3c(C)nn(C)c3C)CCNCC2)nc1` the cytotoxicity at 70.5 h was 19.9%. For `Cc1cc(C(C)NC(=O)CCN2C(=O)c3ccccc3C2=O)c(C)o1` (configuration not stated), the cytotoxicity at 70.5 h was 28.1%. In the case of `Cc1cccc(NC(=O)C(C)Oc2ccc3c(c2)OCO3)n1` (configuration not stated), the cytotoxicity at 70.5 h is reported as -3.5%. `O[C@H]1CC[C@@H](Cc2cc(-c3ccc(F)cc3)on2)O[C@@H]1CNCC1CC1` gave a cytotoxicity at 70.5 h of -5.85%. In the case of `Fc1ccccc1Cc1noc(CN2CC[C@@H]3CCCC[C@H]3C2)n1`, the cytotoxicity at 70.5 h is reported as -4.61%. With `Cc1noc([C@H]2COC[C@H]3CN(C(=O)Cc4cccc(F)c4)C[C@H]32)n1` the cytotoxicity at 70.5 h was -16.4%. With `O=c1c(NCCNCCO)c(N2CCN(c3ccc(F)cc3)CC2)c1=O` the cytotoxicity at 70.5 h was -7.08%. In the case of `CCc1n[nH]c(C2CN(C(=O)c3ccnc(N(C)C)c3)CCO2)n1` (configuration not stated), the cytotoxicity at 70.5 h is reported as 20.1%. With `CCc1nsc(N2CCCN(C(=O)c3ccc(CC)o3)CC2)n1` the cytotoxicity at 70.5 h was -11%. With `CCOc1ccc2[nH]c(=O)c(CN3CCCC(CO)(CO)C3)cc2c1` the cytotoxicity at 70.5 h was -4.6%. `Cc1cc(CN(CC(N)=O)CC(C)C)no1` gave a cytotoxicity at 70.5 h of -4.27%. Molecule `O=c1[nH]c(-c2ccc(F)c(F)c2)nc2c1CCNC2` has a cytotoxicity at 70.5 h of -1.92%. `Cc1nc(C)c(CN2CCC(N(C)Cc3noc(C4CC4)n3)C2)s1` (configuration not stated) showed a cytotoxicity at 70.5 h of 21.6%. With `COc1ccc(CN2C[C@@H]3COC[C@]3(CN(C)C)C2)cc1` the cytotoxicity at 70.5 h was -12.6%. `COC(=O)c1ccc(N2CCN(C(=O)c3cnccn3)C(C)C2)cc1` (configuration not stated) showed a cytotoxicity at 70.5 h of -6.45%. Molecule `Cc1nc(C)c(C(=O)N2CCCc3c(F)ccc(F)c32)o1` has a cytotoxicity at 70.5 h of -9.33%. Work on `Cc1cc(N2CCCC2c2nnc3n2CCCCC3)nc(N)n1` (configuration not stated) yielded a cytotoxicity at 70.5 h of 22.8%. Work on `CCCNC(=O)c1cc(-c2cnc(N3CCCC3)nc2)cn1C` yielded a cytotoxicity at 70.5 h of 3.66%. Molecule `CCc1c(O)nc(SCC(=O)c2ccccc2)n(-c2ccccc2)c1=O` has a cytotoxicity at 70.5 h of -2.09%. `CC(=O)c1cc(CC(=O)NCc2ccsc2)cs1` showed a cytotoxicity at 70.5 h of -1.03%. For `COCC(=O)N1CCC2(CCC2NC(=O)c2ccn(C)c2)CC1` (configuration not stated), the cytotoxicity at 70.5 h was -9.35%. With `Fc1cnc(N2CCCC3(CCN(Cc4ccsc4)C3)C2)nc1` (configuration not stated) the cytotoxicity at 70.5 h was 4.29%. In the case of `CCN(CC)Cc1cc(=O)n2c(n1)CN(C(=O)c1ccnnc1)CCC2`, the cytotoxicity at 70.5 h is reported as -3.81%. For `COCCN(Cc1coc(-c2ccc(OC)cc2)n1)C1CC1`, the cytotoxicity at 70.5 h was -1.17%. `Cc1nc(C)n(CC2CCCN(CCC(=O)NC3CCCCC3)C2)n1` (configuration not stated) gave a cytotoxicity at 70.5 h of -3.01%. In the case of `COCCc1noc(CN2CCC3(CCCO3)CCC2=O)n1` (configuration not stated), the cytotoxicity at 70.5 h is reported as 15.5%. In the case of `CCOC(=O)C1CCCCN1Cc1c[nH]nc1-c1cc2ccccc2o1` (configuration not stated), the cytotoxicity at 70.5 h is reported as -7.32%. For `Nc1nc(C2CCN(C(=O)c3cnccn3)CC2)cs1`, the cytotoxicity at 70.5 h was 15.4%. In the case of `Cc1ncc(CN2CCc3c(nc(-c4ccccn4)[nH]c3=O)C2)n1C`, the cytotoxicity at 70.5 h is reported as -8.75%. Molecule `COc1ccc(C(=O)N2C[C@@H](C(=O)O)[C@H](c3ccccc3)C2)c(C)c1` has a cytotoxicity at 70.5 h of 11.5%. For `COc1c(Br)cccc1CCNC(=O)c1ccon1`, the cytotoxicity at 70.5 h was -10.8%. `N#Cc1ccnc(N2CCC(NCCN3CCCC3)CC2)c1` gave a cytotoxicity at 70.5 h of -6.96%. Work on `O=C(NC[C@H]1OC[C@@H](NC2COC2)[C@@H]1O)Nc1ccccc1` yielded a cytotoxicity at 70.5 h of -1.19%. With `NC(=O)C(NCCc1ccc(Cl)s1)c1ccccc1` (configuration not stated) the cytotoxicity at 70.5 h was -11.4%. In the case of `O=C(NCC1CCCO1)c1ccc(S(=O)(=O)NCCc2cn[nH]c2)cc1` (configuration not stated), the cytotoxicity at 70.5 h is reported as -4.87%. Molecule `O=C(COCCOc1ccccc1)NC1CCN(C(=O)C2CC2)CC1` has a cytotoxicity at 70.5 h of 14.4%. In the case of `CC(C)N(C)Cc1cnc2n1CCN(CCc1ccccc1)C2`, the cytotoxicity at 70.5 h is reported as 4.09%. `O=C(N[C@@H]1CN(Cc2ccoc2)[C@@H]2CCCO[C@@H]21)C1CC1` showed a cytotoxicity at 70.5 h of -12.9%. `CCc1c(C)n(CCOC)c2nc3ccccc3n2c1=O` gave a cytotoxicity at 70.5 h of 19.8%. With `Cn1ccnc1CN1CCC(c2nc3ccccc3n2C)CC1` the cytotoxicity at 70.5 h was 28.7%. For `Cn1c(=O)c2c(n3ncnc13)NC(=O)CC2c1ccc(F)cc1` (configuration not stated), the cytotoxicity at 70.5 h was -11.1%. For `c1cncc(-c2ccc3c(c2)C2(CCNCC2)CC3)c1`, the cytotoxicity at 70.5 h was 52.4%. Molecule `CC(=O)Nc1ccc(CNC2CCCSC2)cc1` (configuration not stated) has a cytotoxicity at 70.5 h of 23.3%. With `Cc1ncc(CNC(=O)NCC(C)Oc2ccccc2F)s1` (configuration not stated) the cytotoxicity at 70.5 h was -3.22%. `CN(CC1CCC1)C(=O)Nc1cccnc1-n1cncn1` gave a cytotoxicity at 70.5 h of -12.4%. For `Cn1cccc1C(=O)N1CCc2ncnc(N3CCCC3)c2CC1`, the cytotoxicity at 70.5 h was -5.07%. `OC1CCN(c2ccnc(NCCc3ccccc3Cl)n2)CC1` showed a cytotoxicity at 70.5 h of -25.8%. `COc1ccc(CNC(=O)NCc2cc(C)oc2C)cc1` showed a cytotoxicity at 70.5 h of -10.8%. `CCS(=O)(=O)N1CCC(Nc2c(F)cc(C#N)cc2F)CC1` gave a cytotoxicity at 70.5 h of -9.63%.
